Tests used:
[1] = test system: myocardial neuraminidase; assay: Myocardial neuraminidase level by ELISA after isoproterenol modeling; format: in vivo, SD rats; conditions: ISO model rats; for Effect on the expression level of myocardial neuraminidase: ELISA, in words; for Neuraminidase concentration (myocardial neuraminidase expression level): 3 days
Method: 1. The acute myocardial ischemia model in rats with ISO: SD rats are selected and divided according to body weight into six groups: blank control group, model group, ZA high dose group (0.5 mg/kg iv) and ZA low dose group (0.2 mg/kg iv), OS high dose group (10 mg/kg po), OS low dose group (5 mg/kg po), with 10 rats in each group. The groups with drug administration are administered the drugs continuously for 3 days, and on the second day of drug administration, and 30 minutes after the drug administration, they are performed subcutaneous injection of ISO at a dose of 60 mg/kg; on the third day of drug administration, and 30 minutes after the drug administration, they are also performed subcutaneous injection of ISO at a dose of 60 mg/kg; on the fourth day their tissue samples such as blood and heart are collected on the fourth day. […]
3.3 Determination of Myocardial Neuraminidase Level
The level of myocardial neuraminidase in the rat is detected by […], and the detection kit is a neuraminidase detection kit, which is measured according to the instruction manual of the test kit.
(§1) 1. The acute myocardial ischemia model in rats with ISO: SD rats are selected and divided according to body weight into five groups: blank control group, model group, coptisine high dose group (100 mg/kg p.o.) and coptisine medium dose group 25 mg/kg p.o.), coptisine low dose group (10 mg/kg p.o.), with 10 rats in each group. The groups with drug administration are administered the drugs continuously for 3 days, and on the second day of drug administration, and 30 minutes after the drug administration, they are performed subcutaneous injection of ISO at a dose of 60 mg/kg; on the third day of drug administration, and 30 minutes after the drug administration, they are also performed subcutaneous injection of ISO at a dose of 60 mg/kg; on the fourth day their tissue samples such as blood and heart are collected on the fourth day.
3.3 Method for determination of myocardial neuraminidase level: same as in Embodiment 1.

[2] = test system: isoproterenol-induced acute myocardial ischemia; assay: Cardiac pathology (HE sections) in the acute myocardial ischemia model in rats with ISO; format: in vivo, SD rats; conditions: for Effect on myocardial cell morphology (cardiac pathological sections): all dose groups, in words
Method: (§2) 1. The acute myocardial ischemia model in rats with ISO: SD rats are selected and divided according to body weight into six groups: blank control group, model group, ZA high dose group (0.5 mg/kg iv) and ZA low dose group (0.2 mg/kg iv), OS high dose group (10 mg/kg po), OS low dose group (5 mg/kg po), with 10 rats in each group. The groups with drug administration are administered the drugs continuously for 3 days, and on the second day of drug administration, and 30 minutes after the drug administration, they are performed subcutaneous injection of ISO at a dose of 60 mg/kg; on the third day of drug administration, and 30 minutes after the drug administration, they are also performed subcutaneous injection of ISO at a dose of 60 mg/kg; on the fourth day their tissue samples such as blood and heart are collected on the fourth day.
3.2 Observe the Cardiac Pathology
Fix the myocardial tissue of the apical site of the hearts in 10% formaldehyde solution, obtain material conventionally, perform dehydration, embedding in paraffin, and make it into sheets (4 μm thick), stain them with HE, and observe them under an optical microscope.
as §1
3.2 Observing the pathological section of the heart: same as in Embodiment 1.

[3] = test system: left anterior descending coronary artery ligation model; assay: Acute myocardial ischemia model in rats with left anterior descending coronary artery ligation; format: in vivo, SD rats; conditions: in words
Method: 2. The acute myocardial ischemia model in rats with left anterior descending coronary artery ligation: SD rats are selected and divided into 6 groups according to body weight: blank control group, model group, ZA high dose group (0.5 mg/kg iv). ZA low dose group, (0.2 mg/kg iv), OS high-dose group (10 mg/kg po) and OS low-dose group (5 mg/kg po), with 10 rats in each group. The groups with drug administration are pre-administered drugs 24 h and 12 h in advance before the rats are anesthetized with 3% chloral hydrate at 10 ml/kg, laid flat on their backs and fixed on the rat plate. Then cut them open at between left 4th and 5th ribs to open the pericardium, expose the heart, gently press the thorax to extrude the heart, find the left anterior descending coronary artery in the pulmonary artery cone and left atrium, and immediately bind the root of the left anterior descending coronary artery (pulmonary artery cone and left atrial appendage) with suture 0; push the heart back to the chest, and squeeze out the blood and gas in the chest cavity, close the chest cavity quickly, suture the skin, and the chest opening time is no more than 30 s. […]
The level of myocardial neuraminidase in the rat is detected by […], and the detection kit is a neuraminidase detection kit, which is measured according to the instruction manual of the test kit. […]

[4] = test system: serum CK-MB and D-LDH; assay: Serum myocardial damage indicators CK-MB and D-LDH after isoproterenol modeling; format: in vivo, SD rats; design: Serum CK-MB concentration: unit not given here; conditions: ISO model rats; for Serum CK-MB concentration / Serum D-LDH concentration: 3 days
Method: as §2
3.4 the Detection Method for Serum Myocardial Damage Indicator CK-MB and D-LDH
Measure CK-MB and D-LDH according to the CK-MB detection kit (Roche) and D-LDH detection kit (Invitrogen) operating instructions, respectively.
as §1
3.4 Detection method for serum myocardial damage index CK-MB and D-LDH: same as in Embodiment 1.

[5] = test system: isoproterenol-induced acute myocardial ischemia; assay: Electrocardiogram in the acute myocardial ischemia model in rats with ISO; format: in vivo, SD rats; conditions: for Impact on the ECG (myocardial damage): all dose groups, in words
Method: as §2
3.1 Record the Electrocardiogram
Record the electrocardiogram of each group using standard II lead
as §1
3.1 Record ECG: Same as Embodiment 1.

[6] = test system: neuraminidase; assay: Inhibitory rate on neuraminidase (neuraminidase assay kit, fluorescence); format: biochemical
Method: 3.5 Determination of the inhibitory rate of coptisine on neuraminidase
Neuraminidase activity is determined using a neuraminidase assay kit. Accurately weigh standard coptisine, and prepare 200 μM (high dose group), 100 μM (medium dose group), and 50 μM (low dose group) solution in that order. To prepare a standard curve, add 70 μl of neuraminidase assay buffer to each well in a 96-well fluorescent plate, and add 0, 1, 2, 5, 7.5 and 10 μl of neuraminidase to each well, respectively. Then add […] of Milli-Q water per well so the total volume of each well is 90 μl. To test the sample, add 70 μl of neuraminidase detection buffer to each well of a 96-well fluorescent plate, then add 10 μl of neuraminidase and 10 μl of coptisine solution in different concentrations per well. Add 0-10 μl of Milli-Q water per well so the total volume of each well is 90 After shaking for about 1 minute, incubate at 37° C. for 2 minutes so the inhibitor fully interacts with neuraminidase; then add 10 μl of neuraminidase fluorescein substrate per well, mix by shaking, incubate at 37° C. for 30 minutes and then perform fluorescence measurement at excitation wavelength 322 nm and emission wavelength of 450 nm.

[7] = oseltamivir phosphate high dose group, 10 mg/kg po
[8] = oseltamivir phosphate low dose group, 5 mg/kg po
[9] = zanamivir high dose group, 0.5 mg/kg iv
[10] = zanamivir low dose group, 0.2 mg/kg iv
[11] = high dose coptisine group, 100 mg/kg p.o.
[12] = low dose coptisine group, 10 mg/kg p.o.
[13] = medium dose coptisine group, 25 mg/kg p.o.

For CCOC(=O)C1=C[C@@H](OC(CC)CC)[C@H](NC(C)=O)[C@@H](N)C1 [Oseltamivir phosphate, oseltamivir phosphate], the “Effect on the expression level of myocardial neuraminidase” value (“Effect on the expression level” for short) [1] was “effective in inhibiting the increase in neuraminidase expression induced by myocardial ischemia in a dose-dependent manner”, the “Neuraminidase concentration (myocardial neuraminidase expression level)” value (shortened to “Neuraminidase concentration”) [1, 7] was 16.7202 U/μL and the “Neuraminidase concentration” value [1, 8] was 21.547 U/μL. The “Effect on myocardial cell morphology (cardiac pathological sections)” value (“Effect on myocardial cell morphology” below) [2] was “effective in improving myocardial damage in a dose-dependent manner”, the “Electrocardiogram and cardiac pathology” value [3] was “significantly improve electrocardiogram and cardiac pathology in rats” and the “Serum CK-MB concentration” value [4, 7] was 2846.67. The “Serum D-LDH concentration” value [4, 7] was 7.208 mU/ml, the “Serum CK-MB concentration” value [4, 8] was 2964.44 and the “Serum D-LDH concentration” value [4, 8] was 7.793 mU/ml. The “Impact on the ECG (myocardial damage)” value [5] was “effectively improve myocardial damage in a dose-dependent manner”.

CC(=O)N[C@H]1[C@H]([C@H](O)[C@H](O)CO)OC(C(=O)O)=C[C@@H]1N=C(N)N [Zanamivir, zanamivir] was tested, and the “Effect on the expression level” value [1] was “effective in inhibiting the increase in neuraminidase expression induced by myocardial ischemia in a dose-dependent manner”, the “Neuraminidase concentration” value [1, 9] was 16.9244 U/μL and the “Neuraminidase concentration” value [1, 10] was 21.8341 U/μL. The “Effect on myocardial cell morphology” value [2] was “effective in improving myocardial damage in a dose-dependent manner”, the “Electrocardiogram and cardiac pathology” value [3] was “significantly improve electrocardiogram and cardiac pathology in rats” and the “Serum CK-MB concentration” value [4, 9] was 3544.44. For the same compound, the “Serum D-LDH concentration” value [4, 9] was 8.383 mU/ml, the “Serum CK-MB concentration” value [4, 10] was 3713.33 and the “Serum D-LDH concentration” value [4, 10] was 8.804 mU/ml. For the same compound, the “Impact on the ECG (myocardial damage)” value [5] was “effectively improve myocardial damage in a dose-dependent manner”.

With c1c2c(cc3c1OCO3)-c1cc3ccc4c(c3c[n+]1CC2)OCO4 [coptisine] the “Neuraminidase inhibition, assessment in words” value ([6]; 50-200 μM) was “potent neuraminidase inhibitor”, the “Inhibitory rate on neuraminidase” value ([6]; coptisine concentration 50 μM) was 5.64% and the “Inhibitory rate on neuraminidase” value ([6]; coptisine concentration 100 μM) was 28.69%. The “Inhibitory rate on neuraminidase” value ([6]; coptisine concentration 200 μM) was 56.25%, the “Effect on the expression level” value [1] was “effectively inhibit the increase of neuraminidase expression induced by myocardial ischemia in a dose-dependent manner” and the “Reduction of myocardial neuraminidase expression compared with the model group” value [1, 11] was “about 40%”. For the same compound, the “Reduction of myocardial neuraminidase expression compared with the model group” value [1, 12] was “about 21%”, the “Reduction of myocardial neuraminidase expression compared with the model group” value [1, 13] was “about 29%” and the “Effect on myocardial cell morphology” value [2] was “effectively improve myocardial damage in a dose-dependent manner”. The Inflammatory cell infiltration [2, 11] was “no inflammatory cell infiltration”, the “Myocardial cell morphology and intercellular fissure compared with blank control group” value [2, 11] was “basically consistent with the blank control group” and the “Reduction of serum CK-MB and LDH levels compared with the model group” value (“Reduction of serum CK-MB and LDH levels” below) [4, 11] was “about 40%”. For the same compound, the “Reduction of serum CK-MB and LDH levels” value [4, 12] was “about 20%”, the “Reduction of serum CK-MB and LDH levels” value [4, 13] was “about 30%” and the “Impact on the ECG (myocardial damage)” value [5] was “effectively improve myocardial damage in a dose-dependent manner”. The “Electrocardiogram compared with blank control group” value [5, 11] was “basically consistent with the blank control group”.

Source: US10639289B2, “Application of neuraminidase and inhibitors thereof in myocardial ischemia and myocardial infarction” (CHINA PHARMACEUTICAL UNIVERSITY, priority 2016, dated 2020)
